pIC50: −log10 of the molar value. Read-outs that look alike come from different tables or passages of the source.
Tests used:
[1] = physchem
[2] = 1.5 h, 500 μM, pH 7.4
[3] = tested on: asynchronous 3D7-A10 parasite cultures; experiment: Standard 72-h exposure asexual blood stage susceptibility assay (IC50^72h); type: cell-based, Plasmodium falciparum; settings: Plasmodium falciparum, 3D7, 72 h, read-out: Overall (72hr assay) Mean IC50 (IC50^72h)
[4] = tested on: 3D7-MR4 trophozoite parasite-infected RBCs; settings: 10 × IC50^72h; ref Allman et al., 2016; cited from earlier work
[5] = tested on: Plasmodium falciparum 3D7-A10 parasites; experiment: Stage specificity assay (8-h exposure of synchronized stages, IC50^8h); type: cell-based; settings: for IC50 / pIC50: Plasmodium falciparum
[6] = tested on: 3D7-MR4 trophozoite parasite-infected RBCs; experiment: Metabolomic profiling (hydrophilic metabolite changes, UHPLC-MS); type: cell-based, Plasmodium falciparum

## CCCN(CCC)CC(O)COc1ccccc1C(=O)Nc1ccccc1 (centres unmarked) [MMV006455]
[1]; pH 7.4
  solubility at 1.5 h: > 100 µM
[1]; pH 7.4, aqueous buffer, kinetic from dmso stock
  solubility at 1.5 h: ≥ 500 µM
[2]
  Ratio fil./std. (absorbance filtrate/standard): 1.00
[3]
  pIC50: 6.36
[4]
  levels of cAMP: decreased
  levels of the deoxyribonucleotides dAMP and dTMP: increased
  peptide levels (hemoglobin catabolism signature): decreased peptide levels
[5]; 3D7-A10
  Ratio lowest IC50 8hr/IC50 72hr: 1.0
[5]; 8-h exposures, survival curves
  killing in stage specificity assay: incomplete killing at all asexual blood stages
[5]; 3D7, read-out: Early rings IC50 (IC50^8h), 8-h exposure 0–8 hr, bound given in μM
  IC50: > 12.5 µM
[5]; 3D7, read-out: Early trophozoites Mean IC50 (IC50^8h), 8-h exposure 16–24 hr, 3D7-A10, survival at 60 h
  pIC50: 6.36
[5]; 3D7, read-out: Late rings IC50 (IC50^8h), 8-h exposure 8–16 hr, bound given in μM
  IC50: > 12.5 µM
[5]; 3D7, read-out: Late trophozoites Mean IC50 (IC50^8h), 8-h exposure 24–32 hr, 3D7-A10, survival at 60 h
  pIC50: 6.35
[5]; 3D7, read-out: Schizonts Mean IC50 (IC50^8h), 8-h exposure 32–40 hr, 3D7-A10, survival at 60 h
  pIC50: 6.03
[5]; period when the parasite was most susceptible (lowest IC50^8h)
  Stage of peak activity (Figure 6): trophozoites
[5]; stage(s) with the lowest IC50^8h
  Peak Activity (Table S1): Trophs
[6]; metabolite 3-phosphoglycerate, log2 fold change
  Log2(fold changes) 3-phosphoglycerate: 0.4787
[6]; metabolite 4-Pyridoxic acid, log2 fold change
  Log2(fold changes) 4-Pyridoxic acid: -0.2918
[6]; metabolite 4-aminobutyrate, log2 fold change
  Log2(fold changes) 4-aminobutyrate: 0.4559
[6]; metabolite 4-phosphopantetheine, log2 fold change
  Log2(fold changes) 4-phosphopantetheine: 0.0000
[6]; metabolite 4-phosphopantothenate, log2 fold change
  Log2(fold changes) 4-phosphopantothenate: 0.3730
[6]; metabolite 5-aminopentanoic acid, log2 fold change
  Log2(fold changes) 5-aminopentanoic acid: 0.0000
[6]; metabolite 5-methyl-THF, log2 fold change
  Log2(fold changes) 5-methyl-THF: 0.0000
[6]; metabolite 5-phosphoribosyl-1-pyrophosphate, log2 fold change
  Log2(fold changes) 5-phosphoribosyl-1-pyrophosphate: -0.9177
[6]; metabolite 6-phospho-D-gluconate, log2 fold change
  Log2(fold changes) 6-phospho-D-gluconate: 0.4580
[6]; metabolite HVDD
  Log2(fold change) HVDD: 0.0000
[6]; metabolite Hydroxyisocaproic acid
  Log2(fold change) Hydroxyisocaproic acid: 0.0000
[6]; metabolite IDP
  Log2(fold change) IDP: 0.0000
[6]; metabolite IMP
  Log2(fold change) IMP: 0.8206
[6]; metabolite Inositol
  Log2(fold change) Inositol: 0.0000
[6]; metabolite Isopentyl-PP
  Log2(fold change) Isopentyl-PP: 0.0000
[6]; metabolite L-arginino-succinate
  Log2(fold change) L-arginino-succinate: 0.0000
[6]; metabolite LD
  Log2(fold change) LD: -0.4790
[6]; metabolite Myristoyl/tetradecanoyl-CoA
  Log2(fold change) Myristoyl/tetradecanoyl-CoA: 0.0000
[6]; metabolite N-Acetyl-L-alanine
  Log2(fold change) N-Acetyl-L-alanine: -0.7708
[6]; metabolite N-acetyl-L-ornithine
  Log2(fold change) N-acetyl-L-ornithine: -1.4120
[6]; metabolite N-acetyl-glucosamine-1/6-phosphate
  Log2(fold change) N-acetyl-glucosamine-1/6-phosphate: 1.1792
[6]; metabolite N-acetyl-glutamate
  Log2(fold change) N-acetyl-glutamate: 0.9055
[6]; metabolite N-acetyl-glutamine
  Log2(fold change) N-acetyl-glutamine: -0.4062
[6]; metabolite N-carbamoyl-L-aspartate
  Log2(fold change) N-carbamoyl-L-aspartate: -1.3580
[6]; metabolite NAD+
  Log2(fold change) NAD+: 0.6496
[6]; metabolite NADH
  Log2(fold change) NADH: -0.2919
[6]; metabolite NADP+
  Log2(fold change) NADP+: 1.1032
[6]; metabolite NADPH
  Log2(fold change) NADPH: 1.2448
[6]; metabolite O-acetyl-L-serine
  Log2(fold change) O-acetyl-L-serine: 0.0000
[6]; metabolite Octoluse 8/1P
  Log2(fold change) Octoluse 8/1P: -0.0556
[6]; metabolite Octoluse Bisphosphate
  Log2(fold change) Octoluse Bisphosphate: 0.1196
[6]; metabolite PD
  Log2(fold change) PD: -1.7411
[6]; metabolite PE
  Log2(fold change) PE: 2.1593
[6]; metabolite PEE
  Log2(fold change) PEE: -6.2592
[6]; metabolite PEEK
  Log2(fold change) PEEK: -3.5426
[6]; metabolite PVNF
  Log2(fold change) PVNF: -1.5028
[6]; metabolite Pyroglutamic acid
  Log2(fold change) Pyroglutamic acid: -0.5503
[6]; metabolite Pyrophosphate
  Log2(fold change) Pyrophosphate: -0.6263
[6]; metabolite Ribose-5-phosphate
  Log2(fold change) Ribose-5-phosphate: 0.0000
[6]; metabolite S-adenosyl-L-homocysteine
  Log2(fold change) S-adenosyl-L-homocysteine: 0.2802
[6]; metabolite S-adenosyl-L-methioninamine
  Log2(fold change) S-adenosyl-L-methioninamine: 0.0000
[6]; metabolite S-adenosyl-L-methionine
  Log2(fold change) S-adenosyl-L-methionine: 0.0000
[6]; metabolite S-methyl-5'-thioadenosine
  Log2(fold change) S-methyl-5'-thioadenosine: 1.5238
[6]; metabolite SD
  Log2(fold change) SD: -2.2607
[6]; metabolite SDL
  Log2(fold change) SDL: 0.0000
[6]; metabolite SID
  Log2(fold change) SID: 0.0000
[6]; metabolite Sedoheptulose bisphosphate
  Log2(fold change) Sedoheptulose bisphosphate: 0.2316
[6]; metabolite Thiamine pyrophosphate
  Log2(fold change) Thiamine pyrophosphate: 0.0000
[6]; metabolite UDP-D-glucose, log2 fold change
  Log2(fold changes) UDP-D-glucose: 0.1600
[6]; metabolite UDP-D-glucuronate, log2 fold change
  Log2(fold changes) UDP-D-glucuronate: -0.0808
[6]; metabolite UDP-N-acetyl-glucosamine, log2 fold change
  Log2(fold changes) UDP-N-acetyl-glucosamine: 0.3510
[6]; metabolite UDP, log2 fold change
  Log2(fold changes) UDP: 0.8505
[6]; metabolite UMP, log2 fold change
  Log2(fold changes) UMP: -0.5223
[6]; metabolite UTP, log2 fold change
  Log2(fold changes) UTP: -1.8892
[6]; metabolite hydroxyphenylpyruvate
  Log2(fold change) hydroxyphenylpyruvate: 0.0000
[6]; metabolite hydroxyproline/Aminolevulinate
  Log2(fold change) hydroxyproline/Aminolevulinate: 0.0000
[6]; metabolite hypoxanthine
  Log2(fold change) hypoxanthine: 0.1926
[6]; metabolite indole
  Log2(fold change) indole: -0.2645
[6]; metabolite inosine
  Log2(fold change) inosine: 0.3717
[6]; metabolite isoleucine
  Log2(fold change) isoleucine: 0.0000
[6]; metabolite lactate
  Log2(fold change) lactate: 1.3382
[6]; metabolite leucine
  Log2(fold change) leucine: 0.0000
[6]; metabolite lysine
  Log2(fold change) lysine: 0.0000
[6]; metabolite malate
  Log2(fold change) malate: 1.2603
[6]; metabolite maleic acid
  Log2(fold change) maleic acid: 0.0000
[6]; metabolite methionine
  Log2(fold change) methionine: 0.0000
[6]; metabolite myo-inositol
  Log2(fold change) myo-inositol: 3.3468
[6]; metabolite nicotinamide mononucleotide
  Log2(fold change) nicotinamide mononucleotide: 0.0000
[6]; metabolite nicotinate
  Log2(fold change) nicotinate: 0.0981
[6]; metabolite ornithine
  Log2(fold change) ornithine: -0.2237
[6]; metabolite orotate
  Log2(fold change) orotate: -1.3257
[6]; metabolite orotidine-5'-phosphate
  Log2(fold change) orotidine-5'-phosphate: 0.0000
[6]; metabolite oxaloacetate
  Log2(fold change) oxaloacetate: 0.0000
[6]; metabolite p-aminobenzoate
  Log2(fold change) p-aminobenzoate: 0.0000
[6]; metabolite p-hydroxybenzoate
  Log2(fold change) p-hydroxybenzoate: 0.4381
[6]; metabolite pantothenate
  Log2(fold change) pantothenate: 0.0000
[6]; metabolite phenylalanine
  Log2(fold change) phenylalanine: 0.0000
[6]; metabolite phenylpyruvate
  Log2(fold change) phenylpyruvate: 0.1142
[6]; metabolite phosphoenolpyruvate
  Log2(fold change) phosphoenolpyruvate: 0.0121
[6]; metabolite prephenate
  Log2(fold change) prephenate: 0.0000
[6]; metabolite proline
  Log2(fold change) proline: 0.0000
[6]; metabolite pyridoxine
  Log2(fold change) pyridoxine: 0.0000
[6]; metabolite pyruvate
  Log2(fold change) pyruvate: 0.4670
[6]; metabolite riboflavin
  Log2(fold change) riboflavin: 0.0000
[6]; metabolite ribose
  Log2(fold change) ribose: 0.0000
[6]; metabolite ribose-phosphate
  Log2(fold change) ribose-phosphate: -0.0481
[6]; metabolite ribulose-5-phosphate
  Log2(fold change) ribulose-5-phosphate: 0.0000
[6]; metabolite serine
  Log2(fold change) serine: 0.0000
[6]; metabolite sn-glycerol-3-phosphate
  Log2(fold change) sn-glycerol-3-phosphate: -0.3619
[6]; metabolite succinate/Methylmalonic acid
  Log2(fold change) succinate/Methylmalonic acid: -0.7549
[6]; metabolite succinyl-CoA/methylmalonyl-CoA
  Log2(fold change) succinyl-CoA/methylmalonyl-CoA: 0.0000
[6]; metabolite taurine
  Log2(fold change) taurine: 0.0000
[6]; metabolite thiamine
  Log2(fold change) thiamine: 0.0000
[6]; metabolite threonine/homoserine
  Log2(fold change) threonine/homoserine: 0.0000
[6]; metabolite thymidine
  Log2(fold change) thymidine: -0.5446
[6]; metabolite thymine, log2 fold change
  Log2(fold changes) thymine: 3.4235
[6]; metabolite trehalose-6-Phosphate, log2 fold change
  Log2(fold changes) trehalose-6-Phosphate: 0.0000
[6]; metabolite tryptophan, log2 fold change
  Log2(fold changes) tryptophan: 0.0000
[6]; metabolite tyrosine, log2 fold change
  Log2(fold changes) tyrosine: 0.0000
[6]; metabolite uridine, log2 fold change
  Log2(fold changes) uridine: 0.2304

Reference: publication PMC7031696 (Cell chemical biology, 2019)
